The text below walks through data of patent US20250136555A1 (HARBIN MEDISAN PHARMACEUTICAL CO., LTD., priority 2022, published 2025).

Each structure is given as a SMILES string. “Also recorded” adds a separate entry of the source.

In the experiment the test system is C57 mice. As to the kind of experiment: Serum triglyceride levels in mice. Type of experiment: in vivo. The procedure: Animals: 48 male C57 mice, SPF grade, 8 weeks old, weighing about 20 g, purchased from Beijing Vital River. All animals maintained a 12-hour alternating circadian rhythm and were given ad libitum access to food and water. […] Mice in the control group were administered a solvent control CMC-Na every day, and mice in each of the administration groups were administered the corresponding drug every day. Intragastric administration was performed for 5 consecutive days, and the mice were given ad libitum access to food and water during administration. Each group of mice was weighed every day, and their body weight, hair, feces, and activities were carefully observed and recorded. Two hours after administration on day 5, blood was collected from the orbit, and the mice were euthanized. The whole blood was left to stand at room temperature for 2 h and centrifuged at 3000 rpm for 15 min, and serum was collected. The serum was placed onto the automatic biochemical analyzer (Google Biotechnology Co., Ltd.) to determine the triglyceride (TG) levels in the serum.

On to `Cc1cc(CN2C(=O)CN(c3ccc(C(F)(F)F)cc3)C2=O)cc(C)c1OC(C)(C)C(=O)O` [Compound 1, 2-(4-((2,5-Dioxo-3-(4-(trifluoromethyl)phenyl)imidazolidin-1-yl)methyl)-2,6-dimethylphenoxy)-2-methylpropionic Acid], for which, under “1 mg/kg intragastric, 5 consecutive days”, the “triglyceride level in mouse serum (FIG. 1)” value is reported as “significantly reduce the triglyceride level”. The “effect in reducing triglycerides versus positive drugs” value (compound 1 1 mg/kg vs GFT505 1 mg/kg, pemafibrate 1 mg/kg, fenofibrate 30 mg/kg) was “significantly more effective in reducing triglycerides than GFT505 and pemafibrate at the equivalent dose; also recorded: superior to fenofibrate”.
